From the supplement of paper PMC4862054

Columns and labels:
Assay in all cases: normalised response (% of control), CellTiter-Glo; higher = more viable cells (100 = DMSO, 0 = benzethonium chloride kill control)
Details in all cases: incubation time: 72 h
[1] = test system: DU-4475
Procedure, shortened: (§1)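 Breast cancer cell lines (20 µl suspension) were seeded into 384-well plates holding compound at 5 concentrations in 10-fold steps over a compound-specific 10,000-fold range, then incubated 72 h. CellTox Green fluorescence (485/520 nm) was read first, then CellTiter-Glo luminescence after 10 min at room temperature. Each plate was normalised to 0.1 % DMSO (100) and a positive kill control (0). Each value is the normalised signal at a single concentration of the series.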

[2] = test system: MDA-MB-453
Procedure, shortened: as §1

[3] = test system: SK-BR-3
Procedure, shortened: as §1

[4] = test system: HCC1143
Procedure, shortened: as §1

[5] = test system: CAL-148
Procedure, shortened: as §1

[6] = test system: HCC1937
Procedure, shortened: as §1

[7] = test system: MFM-223
Procedure, shortened: as §1

[8] = test system: CAL-120
Procedure, shortened: as §1

[9] = test system: Hs578T
Procedure, shortened: as §1

[10] = test system: MDA-MB-436
Procedure, shortened: as §1

[11] = test system: MDA-MB-231
Procedure, shortened: as §1

[12] = test system: CAL-85-1
Procedure, shortened: as §1

[13] = test system: HCC1599
Procedure, shortened: as §1

[14] = test system: HDQ-P1
Procedure, shortened: as §1

[15] = test system: MDA-MB-468
Procedure, shortened: as §1

[16] = test system: MCF-10A
Procedure, shortened: as §1

[17] = test system: BT-474
Procedure, shortened: as §1

[18] = test system: BT-549
Procedure, shortened: as §1

[19] = test system: CAL-51
Procedure, shortened: as §1

SMILES | normalised response [1] | normalised response [2] | normalised response [3] | normalised response [4] | normalised response [5] | normalised response [6] | normalised response [7] | normalised response [8] | normalised response [9] | normalised response [10] | normalised response [11] | normalised response [12] | normalised response [13] | normalised response [14] | normalised response [15] | normalised response [16] | normalised response [17] | normalised response [18] | normalised response [19]
CC(C)(C)Cn1c(N)nc2ccc(-c3[nH]c(C(C)(C)C)nc3-c3ccc(F)cc3)nc21 (1 nM) | 98.1% | 110% | 104% | 104% | 110% | 105% | 106% | 98.8% | 95.4% | 101% | 99.3% | 99.9% | 104% | 101% | 102% | 109% | 103% | 103% | 117%
CC(C)(C)Cn1c(N)nc2ccc(-c3[nH]c(C(C)(C)C)nc3-c3ccc(F)cc3)nc21 (10 nM) | 105% | 104% |  | 104% | 110% | 95.1% | 105% | 97.8% | 106% | 104% | 99.7% | 97.8% | 95.5% | 95.6% | 102% | 106% | 103% | 95.9% | 97.5%
Cn1cc(C[C@@H](N)C(=O)O)c2ccccc21 [1-methyl-D-tryptophan] (0.5 nM) | 101% | 99.4% | 93% | 96.5% | 87.4% | 97.6% | 92.8% | 95.6% | 99.3% | 103% | 95.2% | 94.3% | 102% | 105% | 98% | 97.1% | 96.1% | 101% | 113%
Cn1cc(C[C@@H](N)C(=O)O)c2ccccc21 [1-methyl-D-tryptophan] (5 nM) | 95.8% | 90.1% | 99.8% | 102% | 88.9% | 98.5% | 94.2% | 95.1% | 93.2% | 107% | 96.8% | 91.3% | 107% | 104% | 98.3% | 95.2% | 100% | 95.7% | 94.2%
CC[C@H](CC#N)OC(=O)N[C@@H](C)c1cccc(NC(=O)Nc2ccc(-c3cnco3)c(OC)c2)c1 [AVN944] (1 nM) | 97.9% | 99.6% | 95.7% | 93.2% | 99.8% | 103% | 93.5% | 96.7% | 97.8% | 91.1% | 96.1% | 97% | 90.3% | 99.4% | 97.2% | 99.1% | 89.2% | 98.5% | 112%
CC[C@H](CC#N)OC(=O)N[C@@H](C)c1cccc(NC(=O)Nc2ccc(-c3cnco3)c(OC)c2)c1 [AVN944] (10 nM) | 97.5% | 82.7% |  | 97.3% | 99.3% | 96% | 96.2% | 95% | 96.4% | 97.6% | 101% | 95.8% | 88.6% | 100% | 111% | 99.7% | 89.4% | 91.5% | 122%
Cc1c(N)nc([C@H](CC(N)=O)NC[C@H](N)C(N)=O)nc1C(=O)N[C@H](C(=O)N[C@H](C)[C@@H](O)[C@H](C)C(=O)N[C@H](C(=O)NCCc1nc(-c2nc(C(=O)NCCC[S+](C)C)cs2)cs1)[C@@H](C)O)[C@@H](OC1OC(CO)C(O)C(O)C1OC1OC(CO)C(O)C(OC(N)=O)C1O)c1cnc[nH]1 (stereo partly drawn) [Bleomycin] (10 nM) | 98.1% | 104% | 106% | 98.9% | 85% | 93.3% | 101% | 97.3% | 99.8% | 94.2% | 96.3% | 96.1% | 97.7% | 97.6% | 98% | 100% | 95.7% | 87.6% | 97.5%
Cc1cc2c(F)c(Oc3ncnn4cc(OC[C@@H](C)O)c(C)c34)ccc2[nH]1 [Brivanib] (1 nM) | 111% | 107% |  | 104% | 111% | 102% | 110% | 98.9% | 103% | 102% | 104% | 102% | 103% | 97.8% | 108% | 107% | 107% | 95.2% | 74.5%
CCCCCOC(=O)Nc1nc(=O)n([C@@H]2O[C@H](C)[C@@H](O)[C@H]2O)cc1F [Capecitabine] (10 nM) | 100% | 107% | 99.5% | 96.9% | 110% | 98.8% | 103% | 102% | 98.1% | 98.7% | 96.4% | 97.4% | 86.9% | 99.6% | 91.9% | 105% | 99.6% | 93.2% | 99.6%
CC(C)C[C@H](NC(=O)[C@H](CCc1ccccc1)NC(=O)CN1CCOCC1)C(=O)N[C@@H](Cc1ccccc1)C(=O)N[C@@H](CC(C)C)C(=O)[C@@]1(C)CO1 [Carfilzomib] (1 nM) | 108% | 101% | 107% | 106% | 108% | 101% | 112% | 105% | 100% | 109% | 105% | 105% | 108% | 108% | 106% | 115% | 115% | 99.5% | 87.7%
Nc1nc(Cl)nc2c1ncn2[C@@H]1O[C@H](CO)[C@@H](O)[C@@H]1F [Clofarabine] (10 nM) | 102% | 91.3% |  | 102% | 107% | 95.8% | 101% | 101% | 105% | 95.1% | 93.5% | 105% | 95.2% | 96.8% | 98.9% | 105% | 102% | 98.3% | 72.2%
CCN(CC)CCOc1ccc(C(=C(Cl)c2ccccc2)c2ccccc2)cc1 [Clomifene] (10 nM) | 103% | 112% |  | 104% | 102% | 111% | 102% | 106% | 103% | 101% | 105% | 99.9% | 96.3% | 100% | 99.2% | 107% | 107% | 99.5% | 122%
C[C@@H]1C[C@H]2[C@@H]3CCC4=CC(=O)C=C[C@]4(C)[C@@]3(F)[C@@H](O)C[C@]2(C)[C@@]1(O)C(=O)CO [Dexamethasone] (10 nM) | 101% | 95.2% |  | 103% | 100% | 97.5% | 95.2% | 83.2% | 104% | 102% | 137% | 116% | 100% | 89.8% | 97.9% | 94% | 130% | 97.4% | 113%
CCc1cnn2c(NCc3ccc[n+]([O-])c3)cc(N3CCCC[C@H]3CCO)nc12 [Dinaciclib] (0.1 nM) | 102% | 99% | 103% | 102% | 110% | 102% | 100% | 99.6% | 99% | 99.3% | 98.5% | 98.4% | 103% | 104% | 93.8% | 106% | 97.1% | 109% | 82.8%
CCc1cnn2c(NCc3ccc[n+]([O-])c3)cc(N3CCCC[C@H]3CCO)nc12 [Dinaciclib] (1 nM) | 97.8% | 103% |  | 107% | 115% | 98.5% | 103% | 99.6% | 109% | 98.5% | 98.3% | 101% | 101% | 104% | 97.8% | 102% | 95.7% | 92.5% | 82.1%
CC(C)NC[C@@H](C(=O)N1CCN(c2ncnc3c2[C@H](C)C[C@H]3O)CC1)c1ccc(Cl)cc1 [GDC-0068] (10 nM) | 105% | 91.1% |  | 103% | 96.8% | 97% | 98.8% | 99.8% | 100% | 94.4% | 110% | 95.6% | 90.8% | 96.1% | 95.7% | 103% | 96.8% | 98.2% | 108%
COc1cc2c(cc1-c1c(C)noc1C)ncc1[nH]c(=O)n([C@H](C)c3ccccn3)c12 [I-BET151] (10 nM) | 103% | 91.7% |  | 107% | 111% | 98.5% | 103% | 100% | 99% | 101% | 105% | 99.4% | 100% | 97.9% | 99.2% | 108% | 98% | 91.9% | 94.3%
COc1cc2c(N3CCN(C(=O)Nc4ccc(OC(C)C)cc4)CC3)ncnc2cc1OCCCN1CCCCC1 [Tandutinib] (1 nM) | 102% | 95.1% |  | 103% | 101% | 99% | 103% | 104% | 98.6% | 107% | 101% | 107% | 90.9% | 103% | 102% | 99.8% | 99.9% | 94.9% | 118%
C[C@@H](C(=O)O)c1ccc(-c2ccccc2)c(F)c1 [Tarenflurbil] (10 nM) | 97% | 94.9% |  | 101% | 92.2% | 101% | 93.7% | 96.7% | 104% | 105% | 94.6% | 95.3% | 106% | 98% | 86.7% | 97.5% | 90.8% | 94.5% | 123%
Cn1nnc2c(C(N)=O)ncn2c1=O [Temozolomide] (10 nM) | 99.4% | 98% |  | 98.5% | 102% | 95.8% | 97.5% | 97.9% | 100% | 101% | 99.5% | 103% | 88.7% | 96.7% | 97% | 92.1% | 97% | 102% | 110%
